Holding throughout (assay): growth of human tumour cells (NCI), 48 h
Assay [1] deals with SW-620 colon.
For assay [2], the system named is HOP-92 NSCLC.
Assay [3] deals with T-47D breast.
Assay [4] relates to COLO 205 colon.
For assay [5], the system named is SK-MEL-28 melanoma.
Assay [6] deals with SN12C renal.
The subject of assay [7] is BT-549 breast.
For assay [8], the system named is OVCAR-8 ovarian.
Assay [9] concerns UACC-62 melanoma.
Assay [10] has as its system CCRF-CEM leukemia.

Values joined by “and” are separate entries in the source; they are usually repeats but may differ in a detail not shown here. Equal values may be shown once.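 Step 1: Grow cells in 96-well plates. Step 2: Expose to compound for 48 hours at 5 concentrations. Step 3: Interpolate endpoints linearly; if unreached, use highest concentration. Abbreviation: GI50, concentration required for 50% inhibition of growth. The concentration for full growth arrest is given as TGI.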

As for `C[C@]12CCC3=NCCN3C1=CC[C@@H]1[C@@H]2CC[C@@]2(C)[C@H]1CC[C@]2(C)O`, the TGI is > 100 µM in [1]; > 100 µM in assay [2]; > 100 µM in assay [3]; 75.5 µM in [4]; 99.6 µM in assay [5]; > 100 µM in assay [6]. The TGI in [7] is > 100 µM; in assay [8], > 100 µM; in assay [9], 76.4 µM.

Turning to `O=C(c1ccccc1)C(Br)C(Br)c1ccccc1` (stereo unspecified), the GI50 in assay [1] was 1.69 µM; in assay [2], 2.53 µM; in assay [3] it was 2.59 µM; in assay [4], 1.92 µM; in assay [5], 3.59 µM; in [6], 10.4 µM. Moreover, the GI50 in assay [7] is 12.8 µM; in assay [8] it was 4.12 µM; in assay [9] it was 11.8 µM. For the same compound, the TGI in assay [1] is 3.28 µM; in assay [2] it was 6 µM; in [3], 6.26 µM; in assay [4] it was 3.5 µM; in assay [5], 13 µM; in assay [6], 22.6 µM. Also, the values for the TGI in [7], in assay [8] and in [9] were 25.6 µM, 13.3 µM and 24.2 µM, respectively.

Regarding `CCCCCCCCCCCCOC1C(C(CC(=O)N2CCN(Cc3ccc4c(c3)OCO4)CC2)NS(=O)(=O)c2cc(Cl)cc(Cl)c2)OC2OC(C)(C)OC21` (stereo unspecified), the GI50 was 16.4 µM in [1]; 15.1 µM in assay [2]; 28.9 µM in [3]; 11.7 µM in [4]; > 100 µM in assay [5]; 15.6 µM in assay [6]. The GI50 in assay [7] was 27.9 µM; in assay [8] it was 20.6 µM; in [9], > 63.3 µM. The TGI in assay [1] is > 100 µM; in [2], > 62.8 µM; in assay [3], > 100 µM; in assay [4], > 78.3 µM; in [5] it was > 100 µM; in assay [6] it was 43.2 µM. The TGI in assay [7], in assay [8] and in assay [9] was > 100 µM in each case.

`O=C(C(=O)c1cc(Br)ccc1O)c1cc(Br)ccc1O`: the GI50 in [2] is 1.48 µM; in assay [3] it was 3.87 µM; in assay [4], 18.6 µM; in assay [5], 8 µM; in assay [6], 3.47 µM; in [10] it was 5.5 µM. For the same compound, the GI50 in assay [8] was 7.46 µM; in [9] it was 3.94 µM. In addition, the TGI in assay [2] is 5.58 µM; in [3] it was > 100 µM; in assay [4] it was 44.5 µM; in assay [5], > 100 µM; in assay [6], 90.9 µM; in assay [10] it was > 100 µM. The TGI was determined as 40.5 µM in assay [8] and 17 µM in [9].

`COc1cccc(C2C(C#N)=C(N)Oc3cc4c(cc32)OCO4)c1` (stereo unspecified): the GI50 in assay [1] was 0.0369 µM; in assay [3], 0.0502 µM; in assay [4], 0.0492 µM; in [5], 0.0813 µM; in assay [6] it was 0.0778 µM; in [7], 0.0874 µM. Further, the GI50 is 0.0362 µM in assay [10], 0.0956 µM in assay [8] and 0.0505 µM in [9]. Moreover, the TGI is > 63.2 µM in assay [1]; 28 µM in assay [3]; 0.325 µM in [4]; 32.6 µM in assay [5]; > 46.2 µM in [6]; 5 µM in assay [7]. The TGI in assay [10] is 19.9 µM; in assay [8], > 36.2 µM; in [9] it was > 53.8 µM.

Consider `O=C(O)Cn1ccc(=O)c2cc([N+](=O)[O-])ccc21`, for which the TGI in assay [1], in assay [3], in [4], in assay [5], in [6] and in assay [7] was > 100 µM each time. In addition, the TGI in assay [10], in assay [8] and in assay [9] was > 100 µM in each case.

Turning to `COc1cc2cc3c(c(O)c2c(O)c1-c1c(OC)cc2cc4c(c(O)c2c1O)C(=O)O[C@H](C)C4)C(=O)O[C@H](C)C3`, the GI50 in assay [1] is 77.1 µM; in [2], 31.3 µM; in [3], 23.3 µM; in assay [4], 27.2 µM; in assay [5], 33 µM; in assay [6] it was 18.3 µM. Besides, the GI50 in [10] was 25.3 µM; in assay [8], 33.5 µM; in assay [9] it was 17.1 µM. For the same compound, the TGI was > 100 µM in assay [1]; 74.3 µM in [2]; 57.2 µM in [3]; 78.7 µM in [4]; 99.1 µM in [5]; 38.8 µM in assay [6]. The results for the TGI in assay [10], in assay [8] and in [9] were 67.7 µM, > 100 µM and 32.5 µM, respectively.

With `Cc1ccnc(Nc2ccc([N+](=O)[O-])c(NCCN3CCOCC3)n2)c1`, the GI50 in assay [1] is 0.00497 µM; in assay [3], 26.1 µM; in assay [4] it was 0.00502 µM; in [6], 0.0425 µM and 0.048 µM; in assay [7], 0.0208 µM and 0.0191 µM; in assay [10], 0.0182 µM and 0.0265 µM. Moreover, the GI50 in assay [8] is 0.0334 µM and 0.0201 µM; in assay [9], 0.00382 µM. For the same compound, the TGI in assay [1] was > 100 µM; in assay [3] it was 74.9 µM; in [4], 0.0417 µM and 0.0333 µM; in [5], 30.3 µM; in assay [6], > 100 µM; in assay [7], 23.4 µM. Besides, the TGI in assay [10] is 20.6 µM; in [8] it was > 100 µM; in assay [9], 18.3 µM.

For `c1cncc(C2ONC3=NCCN32)c1` (stereo unspecified), the GI50 in assay [1] was 35.5 µM; in assay [3], 40 µM; in assay [4] it was 27.7 µM; in assay [5], > 100 µM; in assay [6], 14.6 µM; in assay [7], 22.9 µM. The GI50 in assay [10] was 21 µM; in assay [8], 27.4 µM; in assay [9], 46.7 µM. Also, the TGI in [1] was > 100 µM; in assay [3], > 100 µM; in assay [4], > 100 µM; in [5], > 100 µM; in assay [6] it was 31.7 µM; in [7], 70 µM. In addition, the values for the TGI in assay [10], in assay [8] and in assay [9] were 56.6 µM, > 100 µM and > 100 µM, respectively.

In the case of `Oc1ccccc1C=Nc1nc(OCc2ccccc2)nc2[nH]ncc12`, the GI50 in assay [1] is 27.4 µM; in [2] it was 11.7 µM; in assay [3] it was 14 µM; in [4], 22.2 µM; in [5] it was 22.2 µM; in [6], 17.2 µM. The figures for the GI50 in [7], in [8] and in assay [9] were 33.7 µM, 44.3 µM and 13.6 µM, respectively. Besides, the TGI in assay [1] stood at 76.1 µM; in [2], 43.7 µM; in [3], 46.3 µM; in [4], 49.6 µM; in assay [5], 43.1 µM; in assay [6], 40.7 µM. Besides, the TGI in assay [7] was 86.7 µM; in [8], > 100 µM; in assay [9], 28.9 µM.

Take `O=c1[nH]c2ccc([N+](=O)[O-])c(Cl)c2c2ccccc12`: the TGI in [1] is 17.9 µM; in assay [3], 73.7 µM; in assay [4] it was 26.3 µM; in assay [5], 25.8 µM; in [6], 14.4 µM; in [7], 21.2 µM. The TGI in assay [10] turned out to be 24.1 µM; in [8] it was 3.56 µM; in assay [9] it was 15.5 µM.

For `C=C1CC/C=C(\C)CC[C@H](C(=C)C)[C@@H](O)/C=C(/CO)CCC1O` (stereo partly specified), the GI50 was 72.8 µM in assay [1]; 45.7 µM in assay [3]; 88.2 µM in assay [4]; > 100 µM in assay [5]; > 100 µM in assay [6]; 48.2 µM in assay [7]. Besides, the GI50 in assay [10] is 24 µM; in assay [8], > 100 µM; in assay [9], 57.3 µM. Further, the TGI in assay [1], in assay [3], in assay [4], in assay [5], in assay [6] and in assay [7] was > 100 µM in each case. Further, the TGI in [10] is 48.6 µM; in assay [8], > 100 µM; in assay [9] it was > 100 µM.

For `CCSc1ncc(Br)c(Sc2nc(N)nc3nc[nH]c23)n1`, the GI50 in [1] is 17.7 µM; in assay [2], 1.97 µM; in assay [3], 3.07 µM; in [4], 15.1 µM; in assay [5], 46.9 µM; in assay [6], 4.52 µM. Further, the GI50 in assay [7] was 4.11 µM; in [8], 4.54 µM; in assay [9], 2.37 µM. The TGI in assay [1] is > 100 µM; in assay [2] it was 43.4 µM; in assay [3], > 100 µM; in assay [4], 52.6 µM; in [5], > 100 µM; in [6] it was > 100 µM. Also, the TGI in assay [7] is 67 µM; in assay [8], > 100 µM; in [9] it was 20.4 µM.

On to `C=C(Cl)[C@@](Cl)(CBr)CC[C@@H](Br)C(C)(C)Cl`, for which the GI50 in assay [1] was 0.778 µM; in assay [3] it was 0.775 µM; in [4], 0.776 µM; in assay [10] it was 20.3 µM; in assay [9], 4.53 µM. For the same compound, the TGI in assay [2] was 0.807 µM; in assay [3] it was 2.98 µM and 0.797 µM; in assay [6] it was 17.3 µM; in assay [7] it was 22.3 µM; in assay [10], > 100 µM and 53.6 µM; in assay [9] it was 24.5 µM and 3.84 µM.

Take `Clc1ccc2c(NCCCN3CCN(c4nc(N5CCOCC5)nc5ccccc45)CC3)ccnc2c1`: the GI50 in [1] is 1.62 µM; in [3], 2.32 µM; in [4] it was 1.66 µM; in assay [5] it was 1.88 µM; in [7], 1.64 µM; in [10], 1.8 µM. The GI50 in assay [8] is 1.98 µM; in assay [9], 1.9 µM. Further, the TGI was 3.5 µM in [1]; 5.09 µM in [3]; 3.32 µM in assay [4]; 3.37 µM in [5]; 3.08 µM in assay [7]; 5.73 µM in assay [10]. The TGI amounted to 4.47 µM in assay [8] and 3.36 µM in assay [9].

Take `NC(=O)c1ncn(C2OC(CO)C(O)C2O)c1N` (stereo unspecified): the GI50 in assay [1], in assay [2], in assay [3], in [4], in assay [5] and in [6] was > 100 µM in each case. Besides, the GI50 in assay [7] was > 100 µM; in assay [8] it was 62.2 µM; in [9], > 100 µM. Besides, the TGI in assay [1], in assay [2], in assay [3], in assay [4], in assay [5] and in assay [6] was > 100 µM throughout. Also, the TGI in [7], in assay [8] and in assay [9] was > 100 µM in each case.

Take `O=C(Nc1ccc(C(F)(F)F)cc1[N+](=O)[O-])c1cccnc1`: the TGI in assay [1], in [3], in assay [4], in [5], in assay [6] and in assay [7] was > 100 µM each time. The TGI was > 100 µM in assay [10] and 90.8 µM in assay [9].

As for `CN(C)c1ccc(C2CC(C)(O)Oc3cc4c(cc32)OCO4)cc1` (stereo unspecified), the TGI in [1] was > 100 µM; in assay [2], > 100 µM; in assay [3], > 100 µM; in assay [4] it was 50.3 µM; in [5], > 100 µM; in assay [6], > 100 µM. Moreover, the TGI in [10] was > 100 µM; in [8], 94.7 µM; in assay [9] it was > 100 µM.

(Values after PubChem BioAssay (NCI).)
